Data set [1] has as its system HL-60 cells. The experiment in a line: MTT-dye reduction cytotoxicity assay, HL-60. Type of data set: cell-based, human. How it is done: (§1) The research included four leukemic and three cancer human cell lines: HL-60 (acute myeloid leukemia), SKW-3 (KE-37 derivative) (T-cell leukemia), BV-173 and K-562 (chronic myeloid leukemia), MDA-MB-231 (ER-negative breast carcinoma), MCF-7 (ER-positive breast adenocarcinoma), and SaOS-2 (osteogenic sarcoma). The cells were provided from the German Collection of Microorganisms and Cell Cultures (DSMZ, Braunschweig, Germany). The solid tumor cell lines (MDA-MB-231, MCF-7, and SaOS-2) were incubated in 90% RPMI-1640 supplemented with 10% fetal bovine serum (FBS), non-essential amino acids, 1 mM sodium pyruvate, and […] human insulin as monolayer adherent cultures. The remaining cell lines were cultivated as a suspension culture in cell culture flasks at 37 °C in an incubator “BB 16-Function Line” Heraeus (Kendro, Hanau, Germany) with humidified atmosphere and 5% CO2 under standard conditions–RPMI-1640 liquid media supplemented with 10% FBS and 2 mM L-glutamine. The cells were kept in log phase by supplementing with fresh media after removing cell suspension aliquots two or three times each week.
(§2) At least eight wells were used for each concentration.
For orientation: Tetrazolium dyes change colour on reduction, which living cells bring about.

The test system of data set [2] is KE-37 cells. The experiment in a line: MTT-dye reduction cytotoxicity assay, KE-37. Format: cell-based, human. The protocol:
as §1, §2

In data set [3] the test system is K-562 cells. The experiment in a line: MTT-dye reduction cytotoxicity assay, K-562. Type of data set: cell-based, human. The protocol:
as §1, §2

Data set [4] concerns BV-173 cells. The experiment in a line: MTT-dye reduction cytotoxicity assay, BV-173. Type of data set: cell-based, human. The protocol: as §1, §2
In data set [5] the test system is SaOS-2 cells. Put plainly: MTT-dye reduction cytotoxicity assay, SaOS-2. Format: cell-based, human. How it is done: as §1, §2
Data set [6] concerns MDA-MB-231 cells. Put plainly: MTT-dye reduction cytotoxicity assay, MDA-MB-231. Format: cell-based, human. The protocol:
as §1, §2

Data set [7] deals with MCF-7 cells. The experiment in a line: MTT-dye reduction cytotoxicity assay, MCF-7. Format: cell-based, human. How it is done: as §1, §2
A short description of data set [8]: MTT-dye reduction cytotoxicity assay, normal HEK-293. Conditions: human, HEK-293 cells (normal human embryonic kidney). How it is done:
(§3) To assess the selectivity of the newly synthesized derivatives, they were tested on the normal human embryonic kidney HEK-293 cell line. The derived IC50 values were used to calculate the selectivity index according to the formula SI = IC50 (normal cells)/IC50 (cancer cells).
The cytotoxic activity of the examined substances was determined using Mossman’s MTT [3-(4,5-dimethylthiazol-2-yl)-2,5-diphenyltetrazolium bromide] dye reduction assay. The approach is based on the reduction of the yellow tetrazolium salt MTT to a violet formazan in live cells via mitochondrial succinate dehydrogenase. In brief, exponentially developing cells were seeded at a density of 1 × 10^5 cells per ml in 96-well flat-bottomed microplates (100 μL/well), and after 24 h of incubation at 37 °C, they were treated to varied doses of the tested substances for 72 h. At least eight wells were used for each concentration. Following the incubation with the test compounds, aliquots of 10 μL MTT solution (10 mg/mL in PBS) were applied to each well. The microplates were then incubated at 37 °C for 4 h before the MTT-formazan crystals were dissolved with 100 μL/well 5% HCOOH in 2-propanol. The MTT-formazan absorbance was measured at 580 nm using a microprocessor-controlled microplate reader (Labexim LMR-1).
The cell survival data were standardized as a percentage of the untreated control (set as 100% viability). The biological data were processed statistically using Student’s t-test, where values were considered statistically significant at p ≤ 0.05. The corresponding IC50 values were obtained to allow quantitative merit for the assessment of the relative potencies of the compounds under investigation. Each data point represents the arithmetic mean ± standard deviation (sd) of at least eight independent experiments.

Data set [9] deals with HL-60, KE-37, K-562, BV-173, SaOS-2, MDA-MB-231, MCF-7 cell lines. Put plainly: Average over the cancer cell lines tested (LE, SI). Format: cell-based, human. As to conditions: average over seven cancer cell lines. How it is done:
as §3
The training set of salicylaldehyde hydrazones contained 11 compounds synthesized and tested before in our Lab. Their anticancer activities were measured and expressed as IC50 values on the following cell lines: HL-60, KE-37, K-562, BV-173, SaOS-2, MDA-MB-231, and MCF-7. For the purposes of SAR analysis, the IC50 values were converted in p-units (−logIC50) and ligand efficiencies (LEs) were calculated according to the formula: LE = pIC50/n, where n is the count of non-hydrogen atoms in the molecule.

Where [10] appears, read: SI = IC50 (HEK-293)/IC50 (cancer cells).
Where [11] appears, read: compound 13 versus benzoyl analog.

A word on the IC50: it is the concentration that inhibits the measured activity by half. One may read the melting point as the temperature, or range, at which the solid turns liquid. On to `COc1ccc(C=NNC(=O)c2ccc(O)cc2)c(O)c1` [Compound 13, 4-methoxysalicylaldehyde-4-hydroxybenzoylhydrazone], for which the melting point was in the range of 216 to 217 °C. Also, the IC50 in [1] (Homo sapiens, HL-60, 72 h treatment, read-out: IC50 exp, HL-60) came to 8.9 ± 2.47 µM. For the same compound, in [1] (setting [10]), the “SI (selectivity index) HL-60” value worked out at 6. Further, the IC50 in [2] (Homo sapiens, KE-37, 72 h treatment, read-out: IC50 exp, KE-37) was 10.8 ± 2.81 µM. Moreover, the “SI (selectivity index) KE-37” value in [2] (setting [10]) is recorded as 5. Besides, the IC50 in data set [3] (Homo sapiens, K562, 72 h treatment, read-out: IC50 exp, K-562) is 8.75 ± 1.29 µM. For the same compound, the “SI (selectivity index) K-562” value in [3] (setting [10]) came out at 6. Also, in data set [3] (setting [11]), the “reduction of cytotoxicity by hydroxy group in the benzoyl ring, K-562” value came out at 292 fold. In data set [4] (Homo sapiens, BV-173, 72 h treatment, read-out: IC50 exp, BV-173), the half-inhibitory concentration (IC50) stood at 3.88 ± 1.16 µM. The “SI (selectivity index) BV-173” value in data set [4] (setting [10]) stood at 15. Besides, in data set [4] (setting [11]), the “reduction of cytotoxicity by hydroxy group in the benzoyl ring, BV-173” value worked out at 3 fold. Besides, the IC50 in [5] (Homo sapiens, SAOS-2, 72 h treatment, read-out: IC50 exp, SaOS-2) turned out to be 26 ± 3.65 µM. Further, the “SI (selectivity index) SaOS-2” value in data set [5] (setting [10]) turned out to be 2. Also, the “reduction of cytotoxicity by hydroxy group in the benzoyl ring, sarcomic cells” value in data set [5] (setting [11]) worked out at 15.5 fold. Besides, the IC50 in data set [6] (Homo sapiens, MDA-MB-231, 72 h treatment, read-out: IC50 exp, MDA-MB-231) worked out at 2.9 ± 0.32 µM. The “SI (selectivity index) MDA-MB-231” value in data set [6] (setting [10]) stood at 20. Also, in [6] (setting [11]), the “reduction of cytotoxicity by hydroxy group in the benzoyl ring, MDA-MB-231” value was 1.25 fold. Moreover, the half-maximal inhibitory concentration (IC50) in data set [7] (Homo sapiens, MCF7, 72 h treatment, read-out: IC50 exp, MCF-7) was found to be 1.38 ± 0.08 µM. The “SI (selectivity index) MCF-7” value in data set [7] (setting [10]) is 41. The “reduction of cytotoxicity by hydroxy group in the benzoyl ring, MCF-7” value in data set [7] (setting [11]) is 6 fold. The compound also yielded an IC50 at 72 h in [8] of 56.7 ± 4.35 µM. In addition, the “average SI” value in data set [9] amounted to 14.

These data come from article PMC10138506, “Design, Synthesis and Cytotoxic Activity of Novel Salicylaldehyde Hydrazones against Leukemia and Breast Cancer” (International Journal of Molecular Sciences, 2023).
